According to patent US20260200913A1, “ATROPISOMERS OF MAT2A INHIBITORS” (IDEAYA Biosciences, Inc., priority 2022, published 2026):

What was measured:
Human MAT2A = molecular target: T1, Human MAT2A (Homo sapiens, UniProt P31153); assay: Phosphate Sensor Fluorescence Assay (MAT2A enzyme inhibition); assay type: biochemical; details: 5.8 nM MAT2A (1-395), 500 uM L-methionine, 500 uM ATP, 1 hour at room temperature, fluorescence at 450 nm
T1 construct: Human MAT2A: Cepter, amino acids 1-395 Clone ID 334; purchased Cepter Clone ID 334, lot 00023-148
Method: MAT2A enzyme is incubated with a test compound in DMSO or DMSO and its substrates (L-methionine and ATP) in a microtiter plate. The enzymatic reaction is stopped by the addition of Working Phosphate Sensor Mixture. The plate is analyzed for fluorescence at 450 nm. The high control (DMSO with enzyme and its substrates) gives high fluorescence which represents no inhibition of enzymatic activity while the low control (DMSO with MAT2A substrates and no enzyme) gives low fluorescence which represents full inhibition of enzymatic activity. […]
For the assay, a mixture of 1 mM L-methionine/1 mM ATP (2× final pre-stopped concentration) in assay buffer: MAT2A (2× final pre-stopped concentration) in Assay Buffer and Working Phosphate Sensor Mixture (1.5 uM Phosphate Sensor/30 mM EDTA in Assay Buffer, which is 3× final concentrations) were prepared. […] The plate was read for fluorescence at 450 nm after exciting at 430 nm on a Tecan Spark microplate reader.
Percent inhibition was calculated in Chemical and Biological Information System (CBIS), (ChemInnovation Software Inc.). […]

HCT116 MTAP null cells = assay: HCT116 MTAP-Null Cell Line Viability; assay type: cell-based; details: final count 4-5 days post treatment (IncuCyte, GFP), normalized to DMSO wells
Method: Preparation: HCT116 WT and MTAP null cells were cultured in DMEM/F12+10% FBS at 37° C. Left the media, dissociation reagent, and PBS in room temperature at least 1 hr prior to start.
Process: Washed cells with 5 mL of PBS, aspirate the PBS. Added 1 mL of dissociation reagent (Trypsin, Gibco #25200114) and left at room temperature for 2-5 mins. When cells were detached, added 5 ml of fresh media. Cells were collected into a 10 mL tube and centrifuged at 1000 rpm for 5 minutes at room temperature. Aspirated media, resuspended in 5 mL fresh media, and counted on Bio-Rad TC20 Cell Counter. Based on the count and the table below, added cells to a clear flat bottom, TC-treated 384-well plate (Corning #3764).
Treated the cells the next day post splitting. Used a 10 mM stock of compound.
Process: Compound treatment was applied to cells using a Tecan D300e digital dispenser with a high concentration 20 micromolar and 3-fold serial dilutions over 9 concentrations in triplicate on a 384-well plate.
4-5 days post treatment, used a Live-Cell Analysis System (IncuCyte®) suitable for reading GFP to do a final count. Raw data were normalized based on the average value of the DMSO wells on each plate.

T1 sequence (P31153 whole entry, the tested form may be a part): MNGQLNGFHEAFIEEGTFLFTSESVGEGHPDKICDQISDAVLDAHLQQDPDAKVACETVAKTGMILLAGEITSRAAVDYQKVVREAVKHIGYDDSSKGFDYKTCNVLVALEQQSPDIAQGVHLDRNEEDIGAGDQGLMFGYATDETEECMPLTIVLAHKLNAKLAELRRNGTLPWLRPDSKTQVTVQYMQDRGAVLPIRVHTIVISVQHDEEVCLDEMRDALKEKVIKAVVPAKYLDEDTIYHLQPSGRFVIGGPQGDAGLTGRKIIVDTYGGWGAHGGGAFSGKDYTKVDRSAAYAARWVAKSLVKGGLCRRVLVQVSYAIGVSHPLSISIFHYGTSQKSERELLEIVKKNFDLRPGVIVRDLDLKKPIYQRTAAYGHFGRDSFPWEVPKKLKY

SMILES	IC50 (Human MAT2A) [nM]	EC50 (HCT116 MTAP null cells) [nM]
Nc1nc(=O)n(-c2ccccc2Cl)c2nc(C(F)(F)F)ccc12 (atropisomer, axis not shown) [Atropisomer Ib]	60	149
Nc1nc(=O)n(-c2ccccc2Cl)c2nc(C(F)(F)F)ccc12 (single isomer, unassigned) [Atropisomer Ia]	3	20
